Reference: ChEMBL document CHEMBL3232998, “Spiromastixones A-O, antibacterial chlorodepsidones from a deep-sea-derived Spiromastix sp. fungus” (J Nat Prod, 2014)
Converted amounts (≈) assume the structure as drawn. Each block holds one molecule with its values, some of them ahead of it.

Key:
Bacillus thuringiensis = assay: Antibacterial activity against Bacillus thuringiensis SCSIO BT01 after 18 hrs by broth microdilution method; assay type: functional; details: SCSIO BT01, 18 h
Bacillus subtilis = assay: Antibacterial activity against Bacillus subtilis SCSIO BS01 after 18 hrs by broth microdilution method; assay type: functional; details: SCSIO BS01, 18 h
Escherichia coli [1] = assay: Antibacterial activity against Escherichia coli ATCC 25922 after 18 hrs by broth microdilution method; assay type: functional; details: ATCC 25922, 18 h
Staphylococcus aureus [2] = assay: Antibacterial activity against Staphylococcus aureus ATCC 29213 after 18 hrs by broth microdilution method; assay type: functional; details: ATCC 29213, 18 h
Enterococcus faecalis [3] = assay: Antibacterial activity against vancomycin-resistant Enterococcus faecalis 09-9 after 18 hrs by broth microdilution method; assay type: functional, organism-based; details: 09-9, 18 h, read-out: IC50
Escherichia coli [4] = assay: Antibacterial activity against extended spectrum beta-lactamase-deficient Escherichia coli ATCC 25922 after 18 hrs by broth microdilution method; assay type: functional, organism-based; details: ATCC 25922, 18 h, read-out: IC50
Klebsiella pneumoniae [5] = assay: Antibacterial activity against extended spectrum beta-lactamase producing Klebsiella pneumoniae ATCC 700603 after 18 hrs by broth microdilution method; assay type: functional, organism-based; details: ATCC 700603, 18 h
Staphylococcus aureus [6] = assay: Antibacterial activity against methicillin-sensitive Staphylococcus aureus 12-28 after 18 hrs by broth microdilution method; assay type: functional, organism-based; details: 12-28, 18 h
Escherichia coli [7] = assay: Antibacterial activity against extended spectrum beta-lactamase-deficient Escherichia coli 12-14 after 18 hrs by broth microdilution method; assay type: functional, organism-based; details: 12-14, 18 h, read-out: IC50
Enterococcus faecalis [8] = assay: Antibacterial activity against vancomycin-sensitive Enterococcus faecalis ATCC 29212 after 18 hrs by broth microdilution method; assay type: functional, organism-based; details: ATCC 29212, 18 h, read-out: IC50
Klebsiella pneumoniae [9] = assay: Antibacterial activity against extended spectrum beta-lactamase-deficient Klebsiella pneumoniae 12-4 after 18 hrs by broth microdilution method; assay type: functional, organism-based; details: 12-4, 18 h
[10] = system: Staphylococcus epidermidis; assay: Antibacterial activity against methicillin-resistant Staphylococcus epidermidis 12-8 after 18 hrs by broth microdilution method; assay type: functional, organism-based; details: 12-8, 18 h, read-out: IC50
Klebsiella pneumoniae [11] = assay: Antibacterial activity against NDM-1 producing Klebsiella pneumoniae ATCC BAA-2146 after 18 hrs by broth microdilution method; assay type: functional, organism-based; details: ATCC BAA-2146, 18 h, read-out: IC50
Staphylococcus aureus [12] = assay: Antibacterial activity against methicillin-sensitive Staphylococcus aureus ATCC 29213 after 18 hrs by broth microdilution method; assay type: functional, organism-based; details: ATCC 29213, 18 h, read-out: IC50
Staphylococcus aureus [13] = assay: Antibacterial activity against methicillin-sensitive Staphylococcus aureus 15 after 18 hrs by broth microdilution method; assay type: functional, organism-based; details: Staphylococcus aureus, 15, 18 h; read-out: IC50
[14] = system: Staphylococcus epidermidis; assay: Antibacterial activity against methicillin-sensitive Staphylococcus epidermidis ATCC 12228 after 18 hrs by broth microdilution method; assay type: functional, organism-based; details: ATCC 12228, 18 h, read-out: IC50
Escherichia coli [15] = assay: Antibacterial activity against extended spectrum beta-lactamase-deficient Escherichia coli 1515 after 18 hrs by broth microdilution method; assay type: functional, organism-based; details: Escherichia coli, 1515, 18 h
Enterococcus faecium [16] = assay: Antibacterial activity against vancomycin-resistant Enterococcus faecium 12-1 after 18 hrs by broth microdilution method; assay type: functional, organism-based; details: 12-1, 18 h, read-out: IC50
Enterococcus faecalis [17] = assay: Antibacterial activity against vancomycin-resistant Enterococcus faecalis ATCC 51299 after 18 hrs by broth microdilution method; assay type: functional, organism-based; details: ATCC 51299, 18 h, read-out: IC50
Enterococcus faecalis [18] = assay: Antibacterial activity against vancomycin-sensitive Enterococcus faecalis 12-5 after 18 hrs by broth microdilution method; assay type: functional, organism-based; details: 12-5, 18 h, read-out: IC50
Klebsiella pneumoniae [19] = assay: Antibacterial activity against extended spectrum beta-lactamase-deficient Klebsiella pneumoniae 7 after 18 hrs by broth microdilution method; assay type: functional, organism-based; details: Klebsiella pneumoniae, 7, 18 h; read-out: IC50
Staphylococcus aureus [20] = assay: Antibacterial activity against methicillin-resistant Staphylococcus aureus 12-33 after 18 hrs by broth microdilution method; assay type: functional, organism-based; details: 12-33, 18 h, read-out: IC50
Staphylococcus aureus [21] = assay: Antibacterial activity against methicillin-resistant Staphylococcus aureus ATCC 33591 after 18 hrs by broth microdilution method; assay type: functional, organism-based; details: ATCC 33591, 18 h, read-out: IC50
Enterococcus faecium [22] = assay: Antibacterial activity against vancomycin-resistant Enterococcus faecium ATCC 700221 after 18 hrs by broth microdilution method; assay type: functional, organism-based; details: ATCC 700221, 18 h, read-out: IC50
[23] = system: Staphylococcus epidermidis; assay: Antibacterial activity against methicillin-sensitive Staphylococcus epidermidis 12-6 after 18 hrs by broth microdilution method; assay type: functional, organism-based; details: 12-6, 18 h
Klebsiella pneumoniae [24] = assay: Antibacterial activity against extended spectrum beta-lactamase producing Klebsiella pneumoniae 12-8 after 18 hrs by broth microdilution method; assay type: functional, organism-based; details: 12-8, 18 h, read-out: IC50
Escherichia coli [25] = assay: Antibacterial activity against extended spectrum beta-lactamase producing Escherichia coli 12-15 after 18 hrs by broth microdilution method; assay type: functional, organism-based; details: 12-15, 18 h, read-out: IC50
Enterococcus faecium [26] = assay: Antibacterial activity against vancomycin-sensitive Enterococcus faecium 12-3 after 18 hrs by broth microdilution method; assay type: functional, organism-based; details: 12-3, 18 h, read-out: IC50

- MIC (Bacillus thuringiensis): 4 µg/mL (≈ 12.2 µM)
- MIC (Bacillus subtilis): 8 µg/mL (≈ 24.4 µM)
- MIC (Escherichia coli [1]): > 128 µg/mL
- MIC (Staphylococcus aureus [2]): 4 µg/mL (≈ 12.2 µM)
SMILES: CCCc1cc(O)cc2c1Oc1cc(O)cc(CCC)c1C(=O)O2

- MIC (Bacillus thuringiensis): 4 µg/mL (≈ 11 µM)
- MIC (Bacillus subtilis): 8 µg/mL (≈ 22.1 µM)
- MIC (Escherichia coli [1]): > 128 µg/mL
- MIC (Staphylococcus aureus [2]): 8 µg/mL (≈ 22.1 µM)
SMILES: CCCc1cc(O)cc2c1Oc1cc(O)c(Cl)c(CCC)c1C(=O)O2

SMILES: CCCc1cc(O)cc2c1Oc1c(Cl)c(O)cc(CCC)c1C(=O)O2
- MIC (Enterococcus faecalis [3]): 256 µM (≈ 92.9 µg/mL)
- MIC (Escherichia coli [4]): > 256 µM
- IC50 (Klebsiella pneumoniae [5]): > 256 µM
- MIC (Bacillus thuringiensis): 8 µg/mL (≈ 22.1 µM)
- IC50 (Staphylococcus aureus [6]): 64 µM
- MIC (Bacillus subtilis): 16 µg/mL (≈ 44.1 µM)
- MIC (Escherichia coli [7]): > 256 µM
- MIC (Enterococcus faecalis [8]): 256 µM (≈ 92.9 µg/mL)
- MIC (Escherichia coli [1]): > 128 µg/mL
- IC50 (Klebsiella pneumoniae [9]): > 256 µM
- MIC [10]: 32 µM (≈ 11.6 µg/mL)
- MIC (Klebsiella pneumoniae [11]): > 256 µM
- MIC (Staphylococcus aureus [12]): 32 µM (≈ 11.6 µg/mL)
- MIC (Staphylococcus aureus [13]): 64 µM (≈ 23.2 µg/mL)
- MIC [14]: 64 µM (≈ 23.2 µg/mL)
- MIC (Staphylococcus aureus [2]): 8 µg/mL (≈ 22.1 µM)
- IC50 (Escherichia coli [15]): > 256 µM
- MIC (Enterococcus faecium [16]): 256 µM (≈ 92.9 µg/mL)
- MIC (Enterococcus faecalis [17]): > 256 µM
- MIC (Enterococcus faecalis [18]): > 256 µM
- MIC (Klebsiella pneumoniae [19]): > 256 µM
- MIC (Staphylococcus aureus [20]): 64 µM (≈ 23.2 µg/mL)
- MIC (Staphylococcus aureus [21]): 64 µM (≈ 23.2 µg/mL)
- MIC (Enterococcus faecium [22]): > 256 µM
- IC50 [23]: 64 µM
- MIC (Klebsiella pneumoniae [24]): > 256 µM
- MIC (Escherichia coli [25]): > 256 µM
- MIC (Enterococcus faecium [26]): > 256 µM

- MIC (Bacillus thuringiensis): 2 µg/mL (≈ 5.03 µM)
- MIC (Bacillus subtilis): 2 µg/mL (≈ 5.03 µM)
- MIC (Escherichia coli [1]): > 128 µg/mL
- MIC (Staphylococcus aureus [2]): 2 µg/mL (≈ 5.03 µM)
SMILES: CCCc1cc(O)c(Cl)c2c1C(=O)Oc1cc(O)c(Cl)c(CCC)c1O2
